A word on the Ki: it is the equilibrium dissociation constant of an inhibitor or competing ligand from its target. A high value points to weaker binding. In general, EC50 refers to the concentration that produces a half-maximal response. The term Emax denotes the size of the effect at its maximum, as opposed to the concentration needed.

Each structure is given as a SMILES string. Where only a bound is given, the exact number is not on record here.

This note sets out measurements from ChEMBL document CHEMBL1144618, “Convenient synthesis and in vitro pharmacological activity of 2-thioanalogs of salvinorins A and B” (Bioorg Med Chem Lett, 2007).

Experiment [1] addresses Kappa-type opioid receptor (Rattus norvegicus, UniProt P34975). In words: Displacement of [3H]U-69593 from rat cloned KOR. (Displacement assays read how much labelled ligand stays bound in the presence of the test substance.)
Experiment [2] has as its target Kappa-type opioid receptor (Homo sapiens, UniProt P41145). Nature of the experiment: Activity at human kappa opioid receptor expressed in HEK293 cells as intracellular calcium mobilization. Format: functional, cell-based. For orientation: Calcium assays in cells follow changes in intracellular calcium, usually with a dye or a luminescent sensor.

Chain of Kappa-type opioid receptor (Homo sapiens, UniProt P41145) (P41145 whole entry): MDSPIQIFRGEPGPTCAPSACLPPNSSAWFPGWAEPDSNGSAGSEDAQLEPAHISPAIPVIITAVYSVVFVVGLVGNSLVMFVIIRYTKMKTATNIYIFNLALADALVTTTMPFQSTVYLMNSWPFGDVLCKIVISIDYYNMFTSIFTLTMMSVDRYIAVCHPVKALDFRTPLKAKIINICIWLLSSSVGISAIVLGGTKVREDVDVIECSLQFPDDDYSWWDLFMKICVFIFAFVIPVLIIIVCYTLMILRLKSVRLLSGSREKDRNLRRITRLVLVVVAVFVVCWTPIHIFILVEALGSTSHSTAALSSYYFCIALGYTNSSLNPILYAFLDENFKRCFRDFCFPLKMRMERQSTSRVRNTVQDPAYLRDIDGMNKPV
Chain of Kappa-type opioid receptor (Rattus norvegicus, UniProt P34975) (P34975 whole entry): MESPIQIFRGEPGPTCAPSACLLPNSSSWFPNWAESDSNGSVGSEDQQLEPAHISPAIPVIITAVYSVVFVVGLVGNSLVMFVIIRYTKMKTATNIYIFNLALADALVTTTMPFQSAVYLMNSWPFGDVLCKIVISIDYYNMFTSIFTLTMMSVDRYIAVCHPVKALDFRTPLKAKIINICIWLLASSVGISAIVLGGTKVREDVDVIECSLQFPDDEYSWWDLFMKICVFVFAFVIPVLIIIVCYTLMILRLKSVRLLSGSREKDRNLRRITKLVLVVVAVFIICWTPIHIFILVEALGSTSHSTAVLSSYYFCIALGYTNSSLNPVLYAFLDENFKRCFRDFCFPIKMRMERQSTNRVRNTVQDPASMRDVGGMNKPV

The molecule `COC(=O)[C@@H]1C[C@@H](S)C(=O)[C@H]2[C@@]1(C)CC[C@H]1C(=O)O[C@H](c3ccoc3)C[C@]21C` [2-EPI-2-THIOSALVINORIN B] gave a Ki in experiment [1] of 546 nM. Also, in experiment [2], the EC50 is over 2000 nM and the Emax was 71%.
Molecule `COC(=O)[C@@H]1C[C@H](S)C(=O)[C@H]2[C@@]1(C)CC[C@H]1C(=O)O[C@H](c3ccoc3)C[C@]21C` [2-THIOSALVINORIN B] came in with a Ki in experiment [1] of 54.5 nM. In experiment [2], the EC50 was 287 nM and the Emax was determined as 89%.
For `COC(=O)[C@@H]1C[C@@H](SC(C)=O)C(=O)[C@H]2[C@@]1(C)CC[C@H]1C(=O)O[C@H](c3ccoc3)C[C@]21C` [2-EPI-2-THIOSALVINORIN A], the Ki in experiment [1] is 151 nM. Further, in experiment [2], the EC50 is 123 nM and the Emax is 106%.
